Test system: NCI-H211 tumor spheroids, viability percent test/control
Assay: Anticancer human tumor NCI-H211 cell line growth inhibition;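 further: spheroids exposed to agents for seven days before readout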
Settings: spheroids with HUVEC and MSC; for IC50: curve of first compound; for viability, T/C: stronger effect = lower value; active means viability on the fitted dose curve at most 10% of control; inactive means the rest
In short: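 Complex tumor spheroids combined malignant cells with endothelial cells and mesenchymal stem cells. DNA-damaging drugs and DNA repair inhibitors were tested alone and in combination, at half-log dilutions down from clinical Cmax (top 10 microM if Cmax unknown), 0.25% DMSO final.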

[1] = second compound 30 pM, first compound 0.0316 µM
[2] = second compound 30 pM, first compound 0.1 µM
[3] = second compound 30 pM, first compound 0.316 µM
[4] = second compound 30 pM, first compound 1 µM
[5] = second compound 30 pM, first compound 3.16 µM
[6] = second compound 30 pM, first compound 10 µM
[7] = second compound 94.9 pM, first compound 0.0316 µM
[8] = second compound 94.9 pM, first compound 0.1 µM
[9] = second compound 94.9 pM, first compound 0.316 µM
[10] = second compound 94.9 pM, first compound 1 µM
[11] = second compound 94.9 pM, first compound 3.16 µM
[12] = second compound 94.9 pM, first compound 10 µM
[13] = second compound 0.0003 µM, first compound 0.0316 µM
[14] = second compound 0.0003 µM, first compound 0.1 µM
[15] = second compound 0.0003 µM, first compound 0.316 µM
[16] = second compound 0.0003 µM, first compound 1 µM
[17] = second compound 0.0003 µM, first compound 3.16 µM
[18] = second compound 0.0003 µM, first compound 10 µM
[19] = second compound 0.000949 µM, first compound 0.0316 µM
[20] = second compound 0.000949 µM, first compound 0.1 µM
[21] = second compound 0.000949 µM, first compound 0.316 µM
[22] = second compound 0.000949 µM, first compound 1 µM
[23] = second compound 0.000949 µM, first compound 3.16 µM
[24] = second compound 0.000949 µM, first compound 10 µM
[25] = second compound 0.003 µM, first compound 0.0316 µM
[26] = second compound 0.003 µM, first compound 0.1 µM
[27] = second compound 0.003 µM, first compound 0.316 µM
[28] = second compound 0.003 µM, first compound 1 µM
[29] = second compound 0.003 µM, first compound 3.16 µM
[30] = second compound 0.003 µM, first compound 10 µM

COc1cc(C)[nH]c(=O)c1CN1CCc2c(Cl)cc(C(OC)C3COC3)c(Cl)c2C1=O (stereo not given) + COc1cc2c(cc1O)CCNC21CSC2c3c(OC(C)=O)c(C)c4c(c3C(COC1=O)N1C(O)C3Cc5cc(C)c(OC)c(O)c5C(C21)N3C)OCO4
active: viability, T/C [12] 5.32% | viability, T/C [13] 0.73% | viability, T/C [14] 0.85% | viability, T/C [15] 0.77% | viability, T/C [16] 0.69% | viability, T/C [17] 0.78% | viability, T/C [18] 0.85% | viability, T/C [19] 0.63% | viability, T/C [20] 0.69% | viability, T/C [21] 0.66% | viability, T/C [22] 1.2% | viability, T/C [23] 0.82% | viability, T/C [24] 0.76% | viability, T/C [25] 0.12% | viability, T/C [26] 0.11% | viability, T/C [27] 0.11% | viability, T/C [28] 0.1% | viability, T/C [29] 0.11% | viability, T/C [30] 0.56%
> 10000 nM: IC50 (second compound 30 pM)
< 31.6 nM: IC50 (second compound 94.9 pM) | IC50 (second compound 0.0003 µM) | IC50 (second compound 0.000949 µM) | IC50 (second compound 0.003 µM)
inactive: viability, T/C [1] 94.3% | viability, T/C [2] 98.4% | viability, T/C [3] 95% | viability, T/C [4] 90.2% | viability, T/C [5] 81.9% | viability, T/C [6] 77.2% | viability, T/C [7] 13.8% | viability, T/C [8] 22.7% | viability, T/C [9] 22.8% | viability, T/C [10] 16% | viability, T/C [11] 10.4%

Cc1cc(C)c(CNC(=O)c2cc(-c3ccc(CN4CCOCC4)cc3)cc3c2cnn3C2CCCC2)c(=O)[nH]1 + COc1cc2c(cc1O)CCNC21CSC2c3c(OC(C)=O)c(C)c4c(c3C(COC1=O)N1C(O)C3Cc5cc(C)c(OC)c(O)c5C(C21)N3C)OCO4
< 31.6 nM: IC50 (second compound 94.9 pM) | IC50 (second compound 0.0003 µM) | IC50 (second compound 0.000949 µM) | IC50 (second compound 0.003 µM)
2730 nM: IC50 (second compound 30 pM)
active: viability, T/C [6] 7.15% | viability, T/C [10] 4.52% | viability, T/C [11] 2.44% | viability, T/C [12] 0.74% | viability, T/C [13] 0.75% | viability, T/C [14] 0.76% | viability, T/C [15] 0.76% | viability, T/C [16] 0.76% | viability, T/C [17] 1.22% | viability, T/C [18] 1.03% | viability, T/C [19] 0.66% | viability, T/C [20] 0.82% | viability, T/C [21] 0.75% | viability, T/C [22] 0.96% | viability, T/C [23] 0.65% | viability, T/C [24] 0.68% | viability, T/C [25] 0.13% | viability, T/C [26] 0.11% | viability, T/C [27] 0.11% | viability, T/C [28] 0.61% | viability, T/C [29] 0.4% | viability, T/C [30] 0.33%
inactive: viability, T/C [1] 98.1% | viability, T/C [2] 113% | viability, T/C [3] 99.7% | viability, T/C [4] 73.2% | viability, T/C [5] 48.8% | viability, T/C [7] 17.6% | viability, T/C [8] 12.4% | viability, T/C [9] 13.5%

Cc1sc2c(c1C)C(c1ccc(Cl)cc1)=NC(CC(=O)Nc1ccc(O)cc1)c1nnc(C)n1-2 (stereo not given) + COc1cc2c(cc1O)CCNC21CSC2c3c(OC(C)=O)c(C)c4c(c3C(COC1=O)N1C(O)C3Cc5cc(C)c(OC)c(O)c5C(C21)N3C)OCO4
active: viability, T/C (second compound 30 pM, first compound 0.03 µM) 4.36% | viability, T/C (second compound 30 pM, first compound 0.0949 µM) 0.66% | viability, T/C (second compound 30 pM, first compound 0.3 µM) 0.42% | viability, T/C (second compound 30 pM, first compound 0.949 µM) 0.31% | viability, T/C (second compound 30 pM, first compound 3 µM) 0.33% | viability, T/C (second compound 94.9 pM, first compound 0.00949 µM) 4.74% | viability, T/C (second compound 94.9 pM, first compound 0.03 µM) 0.91% | viability, T/C (second compound 94.9 pM, first compound 0.0949 µM) 0.53% | viability, T/C (second compound 94.9 pM, first compound 0.3 µM) 0.42% | viability, T/C (second compound 94.9 pM, first compound 0.949 µM) 0.33% | viability, T/C (second compound 94.9 pM, first compound 3 µM) 0.43% | viability, T/C (second compound 0.0003 µM, first compound 0.00949 µM) 0.79% | viability, T/C (second compound 0.0003 µM, first compound 0.03 µM) 0.61% | viability, T/C (second compound 0.0003 µM, first compound 0.0949 µM) 0.45% | viability, T/C (second compound 0.0003 µM, first compound 0.3 µM) 0.61% | viability, T/C (second compound 0.0003 µM, first compound 0.949 µM) 0.4% | viability, T/C (second compound 0.0003 µM, first compound 3 µM) 0.4% | viability, T/C (second compound 0.000949 µM, first compound 0.00949 µM) 0.76% | viability, T/C (second compound 0.000949 µM, first compound 0.03 µM) 0.61% | viability, T/C (second compound 0.000949 µM, first compound 0.0949 µM) 0.47% | viability, T/C (second compound 0.000949 µM, first compound 0.3 µM) 0.25% | viability, T/C (second compound 0.000949 µM, first compound 0.949 µM) 0.04% | viability, T/C (second compound 0.000949 µM, first compound 3 µM) 0.09% | viability, T/C (second compound 0.003 µM, first compound 0.00949 µM) 0.1% | viability, T/C (second compound 0.003 µM, first compound 0.03 µM) 0.09% | viability, T/C (second compound 0.003 µM, first compound 0.0949 µM) 0.09% | viability, T/C (second compound 0.003 µM, first compound 0.3 µM) 0.08% | viability, T/C (second compound 0.003 µM, first compound 0.949 µM) 0.1% | viability, T/C (second compound 0.003 µM, first compound 3 µM) 0.3%
inactive: viability, T/C (second compound 30 pM, first compound 0.00949 µM) 45.6%
< 9.49 nM: IC50 (second compound 30 pM) | IC50 (second compound 94.9 pM) | IC50 (second compound 0.0003 µM) | IC50 (second compound 0.000949 µM) | IC50 (second compound 0.003 µM)

[2H]c1nc(C)nc([2H])c1-c1cc(NC[C@@H](C)c2cccc3c(C(=O)NC)ccnc23)ncn1 + COc1cc2c(cc1O)CCNC21CSC2c3c(OC(C)=O)c(C)c4c(c3C(COC1=O)N1C(O)C3Cc5cc(C)c(OC)c(O)c5C(C21)N3C)OCO4
active: viability, T/C [11] 7.6% | viability, T/C [12] 3.55% | viability, T/C [13] 0.71% | viability, T/C [14] 0.97% | viability, T/C [15] 0.84% | viability, T/C [16] 0.85% | viability, T/C [17] 0.8% | viability, T/C [18] 1.01% | viability, T/C [19] 0.83% | viability, T/C [20] 0.71% | viability, T/C [21] 0.61% | viability, T/C [22] 0.65% | viability, T/C [23] 0.74% | viability, T/C [24] 0.72% | viability, T/C [25] 0.21% | viability, T/C [26] 0.21% | viability, T/C [27] 0.19% | viability, T/C [28] 0.19% | viability, T/C [29] 0.19% | viability, T/C [30] 0.23%
< 31.6 nM: IC50 (second compound 94.9 pM) | IC50 (second compound 0.0003 µM) | IC50 (second compound 0.000949 µM) | IC50 (second compound 0.003 µM)
inactive: viability, T/C [1] 103% | viability, T/C [2] 104% | viability, T/C [3] 100% | viability, T/C [4] 99.6% | viability, T/C [5] 102% | viability, T/C [6] 78.2% | viability, T/C [7] 16.1% | viability, T/C [8] 15.9% | viability, T/C [9] 19.4% | viability, T/C [10] 17.4%
> 10000 nM: IC50 (second compound 30 pM)
